Values of other authors, collected in US20080175908A1, “TABLET-IN-TABLET COMPOSITIONS” (Wyeth, priority 2007, published 2008).

Key:
[1] = test system: MCF-7 cell line (human breast cancer cell line)
uterine response = conditions: preclinical models of uterine stimulation
[2] = test system: ovariectomized rat model of osteopenia

Cc1c(-c2ccc(O)cc2)n(Cc2ccc(OCCN3CCCCCC3)cc2)c2ccc(O)cc12 [bazedoxifene acetate, 1-[4-(2-azepan-1-yl-ethoxy)-benzyl]-2-(4-hydroxy-phenyl)-3-methyl-1H-indol-5-ol acetic acid]
estrogen antagonist behaviour [1]: behaves as an estrogen antagonist | stimulation of uterine response (uterine response): little or no stimulation of uterine response | prevention of bone loss [2]: estrogen agonist-like effect in preventing bone loss | reduction of cholesterol [2]: reducing cholesterol
